Results taken from patent US20260007688A1, “SYNTHETIC ANALOGS OF CANNABINOL (CBN) FOR THE TREATMENT OF AGERELATED NEUROLOGICAL DISORDERS” (priority 2023, published 2026).
Where two headings read alike, the source gives them in different places.

Experiments:
HT22 cells [1] = assay type: cell-based, mouse
Text: A series of fragment chemicals with different variants of the substructures were assembled and screened in a cell-based phenotypic screening assays in the context of oxytosis/ferroptosis (FIG. 1). Specifically, for the left unit (LU), monoterpenoids with different functional groups and/or double-bond substitutions as well as ring arrangements were screened. For the central unit (CU), benzene rings with different hydroxyl group substitutions were screened. For the right unit (RU), different lengths, with or without branches, of the aliphatic hydrocarbon chains were examined.
CBN, CBD and THC were used as reference compounds.
(§1) Briefly, HT22 cells were seeded at 3,000 cells/well in 96-well tissue culture plates in DMEM plus 10% FBS and 1% antibiotics. After 24 hours of plating, the cells were pretreated with different concentrations of the test compounds or a vehicle control for 1 hour followed by coincubation with 5 mM glutamate to initiate the cell death cascade. After 16 hours of treatment, cell viability was measured by the 3-(4,5-dimethylthiazol-2-yl)-2,5-diphenyltetrazolium bromide (MTT) assay. Optical absorbance was measured at 570 nm on a SpectraMax M5 microplate reader. Samples were analyzed in eight to sixteen wells per independent experiment (n=8-16).
as §1, with “The assay procedure described in Fischer et al. was used. Briefly,” for “Briefly,”, “of” for “of the”, “50-100 nM RSL3 or 500 nM erastin” for “5 mM glutamate”, “induce” for “initiate”, “MTT” for “3-(4,5-dimethylthiazol-2-yl)-2,5-diphenyltetrazolium bromide (MTT)”

HT22 cells [2] = test: Ferroptosis assay, RSL3-induced cell death, MTT viability; assay type: cell-based; conditions: Mus musculus, HT-22, 50 nM RSL3, 16 hours
Method: (§2) HT22 mouse hippocampal nerve cells were cultured in high-glucose Dulbecco's modified Eagle's medium (DMEM) (Invitrogen, Cat #11995065, Carlsbad, CA) supplemented with 10% fetal bovine serum (FBS) (Invitrogen, Carlsbad, CA) and 1% antibiotics including penicillin and streptomycin (Invitrogen Cat #10378016, Carlsbad, CA). Cell cultures were incubated at 37° C. in a fully humidified atmosphere containing 10% CO2.
as §1, with “The assay procedure described in Fischer et al. was used. Briefly,” for “Briefly,”, “of” for “of the”, “50-100 nM RSL3 or 500 nM erastin” for “5 mM glutamate”, “induce” for “initiate”, “MTT” for “3-(4,5-dimethylthiazol-2-yl)-2,5-diphenyltetrazolium bromide (MTT)”, “(n=8-16). Results are presented as the percentage of the controls with vehicle alone.” for “(n=8-16).”

MC65 cells = test: Intracellular amyloid toxicity assay; assay type: cell-based; conditions: Homo sapiens, 72 h, APP-C99 induced, day 3, MTT, read-out: Aβ toxicity EC50
Text: Accumulation of intracellular amyloid beta peptide (Aβ) is considered by many as being a primary toxic event in AD. The human nerve cell line MC65 conditionally expresses the C99 fragment of the amyloid precursor protein (APP) leading to the accumulation of intracellular AB. The MC65 cells are routinely grown in the presence of tetracycline and, following its removal, the expression of C99 is induced and the cells die within three days because of the accumulation of intracellular, toxic protein aggregates.
For the intracellular amyloid toxicity assay the procedure described in Huang et al., “Intracellular amyloid toxicity induces oxytosis/ferroptosis regulated cell death” Cell Death Dis. 11 (10) (2020) 828 was used. Briefly, MC65 cells were regularly grown in high glucose DMEM supplemented with 10% FCS and 2 μg/ml tetracycline. For the assay, cells were dissociated and plated at 1×10^5 cells per well in 24 well tissue culture plates. After overnight cultivation in growth medium, the cells were washed three times with phosphate buffered saline containing calcium and magnesium and then switched to Opti-minimal essential media (Opti-MEM, Invitrogen) in the presence (no induction) or absence (APP-C99 induced) of 2 μg/ml tetracycline in the presence or absence different concentrations of the indicated compounds. At day 3, the control cells in the absence of tetracycline were dead, and cell viability was determined by the MTT assay. Optical absorbance was measured at 570 nm on a SpectraMax M5 microplate reader. Samples were analyzed in three wells per independent experiment (n=3). Results are presented as EC50.

HT22 cells [3] = test: Ferroptosis assay, erastin-induced cell death, MTT viability; assay type: cell-based; conditions: Mus musculus, HT-22, 500 nM erastin, 16 hours
Method: as §2
as §1, with “The assay procedure described in Fischer et al. was used. Briefly,” for “Briefly,”, “of” for “of the”, “50-100 nM RSL3 or 500 nM erastin” for “5 mM glutamate”, “induce” for “initiate”, “MTT” for “3-(4,5-dimethylthiazol-2-yl)-2,5-diphenyltetrazolium bromide (MTT)”, “(n=8-16). Results are presented as the percentage of the controls with vehicle alone.” for “(n=8-16).”

HT22 cells [4] = test: Oxytosis assay, glutamate-induced cell death, MTT viability; assay type: cell-based; conditions: Mus musculus, HT-22, 5 mM glutamate, 16 hours
Method: as §2
The assay procedure described in Fischer et al., “Old age-associated phenotypic screening for Alzheimer's disease drug candidates identifies sterubin as a potent neuroprotective compound from Yerba santa” Redox Biol. 21 (2019) 101089 was used. Briefly, HT22 cells were seeded at 3,000 cells/well in 96-well tissue culture plates in DMEM plus 10% FBS and 1% antibiotics. After 24 hours of plating, the cells were pretreated with different concentrations of the test compounds or a vehicle control for 1 hour followed by coincubation with 5 mM glutamate to initiate the cell death cascade. After 16 hours of treatment, cell viability was measured by the 3-(4,5-dimethylthiazol-2-yl)-2,5-diphenyltetrazolium bromide (MTT) assay. Optical absorbance was measured at 570 nm on a SpectraMax M5 microplate reader. Samples were analyzed in eight to sixteen wells per independent experiment (n=8-16). Results are presented as the percentage of the controls with vehicle alone.

Drosophila melanogaster = test: Drosophila mild traumatic brain injury (mTBI) model; assay type: in vivo; conditions: 3.0 μM in food, 3 weeks after mTBI (10×); vehicle 70.2%
HT22 cells [5] = test: Seahorse XF mitochondrial stress test (OCR); assay type: cell-based, mouse; conditions: 16 hours, compared with the control cells
HT22 cells [6] = test: Mitochondrial reactive oxygen species measurement (MitoSOX Red); assay type: cell-based, mouse; conditions: 5 μM compound + 50 nM RSL3
Method: The assay procedure described in Liang et al. was used. Briefly, HT22 cells were seeded onto 96-well black walled plates at a density of 3,000 cells/well in DMEM supplemented with 10% FBS and 1% antibiotics. After the desired treatments, the mitochondrial superoxide ROS were detected with MitoSOX Red reagent (Ex/Em=510/580 nm). Experiments were performed according to the manufacturer's instructions. Fluorescence was measured on a SpectraMax M5 microplate reader. Data were normalized for total protein/well. Each condition was analyzed in eight wells per independent experiment (n=8). Results are presented as the percentage of the controls with vehicle alone. Results were verified by live-cell imaging under a fluorescence microscope. FIG. 14 provides the results.

Structure (SMILES): CCCCc1ccc(O)c(O)c1 [4-butylbenzene-1,2-diol]
- neuroprotective activity against oxytosis/ferroptosis (HT22 cells [1]; 10-50 μM, glutamate and RSL3): good to excellent neuroprotective activity

Structure (SMILES): CCCCCCc1ccc(O)cc1O [4-hexylresorcinol, 4-hexylbenzene-1,3-diol]
- neuroprotective activity against oxytosis/ferroptosis (HT22 cells [1]; 10-50 μM, glutamate and RSL3): good to excellent neuroprotective activity

Structure (SMILES): Oc1ccc(O)cc1 [hydroquinone]
- neuroprotective activity against oxytosis/ferroptosis (HT22 cells [1]): weak neuroprotective activities

Structure (SMILES): CCCCCc1cc(O)cc(O)c1 [olivetol, 5-pentyl-1,3-benzenediol]
- neuroprotective activity against oxytosis/ferroptosis (HT22 cells [1]; 10-50 μM, glutamate and RSL3): good to excellent neuroprotective activity

Structure (SMILES): Oc1cccc(O)c1 [resorcinol]
- neuroprotective activity against oxytosis/ferroptosis (HT22 cells [1]; 1-50 μM, glutamate and RSL3): limited neuroprotective activity

Structure (SMILES): Oc1ccccc1 [phenol]
- neuroprotective activity against oxytosis/ferroptosis (HT22 cells [1]): limited neuroprotective activity

Structure (SMILES): CCCCCc1cc(O)c2c(c1)OC(C)C=C2 (centres unmarked) [CP4, 2-methyl-7-pentyl-2H-chromen-5-ol]
- EC50 (HT22 cells [2]): 0.83 µM
- EC50 (MC65 cells): 1.6 µM
- EC50 (HT22 cells [3]): 8.08 µM
- EC50 (HT22 cells [4]): 6.63 µM
- 3-week mortality index (MI), percentage of dead flies (Drosophila melanogaster): 61.9%

Structure (SMILES): CCCCCCC(C)(C)c1cc(O)cc(O)c1 [5-(1,1-dimethylheptyl) resorcinol]
- neuroprotection (HT22 cells [1]; 1 μM): > 50%

Structure (SMILES): Oc1ccccc1O [catechol]
- neuroprotective activity against oxytosis/ferroptosis (HT22 cells [1]; 10-50 μM, glutamate and RSL3): weak neuroprotective activities

Structure (SMILES): Oc1cc(O)cc(O)c1 [phloroglucinol]
- neuroprotective activity against oxytosis/ferroptosis (HT22 cells [1]; 1-50 μM, glutamate and RSL3): limited neuroprotective activity

Structure (SMILES): CCCCCCC(C)(C)c1cc(O)c2c(c1)OC(C)C=C2 (centres unmarked) [CP2, 2-methyl-7-(2-methyloctan-2-yl)-2H-chromen-5-ol]
- EC50 (HT22 cells [2]): 0.92 µM
- EC50 (MC65 cells): 0.097 µM
- EC50 (HT22 cells [3]): 3.36 µM
- EC50 (HT22 cells [4]): 2.89 µM
- 3-week mortality index (MI), percentage of dead flies (Drosophila melanogaster): 66.7%

Structure (SMILES): CC(C)(C)c1cc(O)ccc1O [2-tert-butylbenzene-1,4-diol]
- neuroprotective activity against oxytosis/ferroptosis (HT22 cells [1]; 10-50 μM, glutamate and RSL3): good to excellent neuroprotective activity

Structure (SMILES): CCCCCc1cc(O)c2c(c1)OC(C)(C)C=C2 [CP3, 2,2-dimethyl-7-pentyl-2H-chromen-5-ol]
- EC50 (HT22 cells [2]): 0.86 µM
- EC50 (MC65 cells): 0.144 µM
- EC50 (HT22 cells [3]): 3.78 µM
- EC50 (HT22 cells [4]): 2.6 µM
- 3-week mortality index (MI), percentage of dead flies (Drosophila melanogaster): 67.3%

Structure (SMILES): Oc1cccc(O)c1O [pyrogallol]
- neuroprotective activity against oxytosis/ferroptosis (HT22 cells [1]; 1-50 μM, glutamate and RSL3): limited neuroprotective activity

Structure (SMILES): Oc1ccc(O)c(O)c1 [hydroxyquinol]
- neuroprotective activity against oxytosis/ferroptosis (HT22 cells [1]; 1-50 μM, glutamate and RSL3): limited neuroprotective activity

Structure (SMILES): CCCCCCC(C)(C)c1cc(O)c2c(c1)OC(C)(C)C=C2 [CP1, 2,2-dimethyl-7-(2-methyloctan-2-yl)-2H-chromen-5-ol]
- maximal and spare mitochondrial respiration (OCR) (HT22 cells [5]): strongest effect on the suppression
- EC50 (HT22 cells [2]): 0.68 µM
- EC50 (MC65 cells): 0.031 µM
- RSL3-induced mtROS production (HT22 cells [6]): strongest anti-mtROS effect
- EC50 (HT22 cells [3]): 2.78 µM
- EC50 (HT22 cells [4]): 1.89 µM
- 3-week mortality index (MI), percentage of dead flies (Drosophila melanogaster): 49.5%

Structure (SMILES): CCCCCCCCCCCCCCCc1cc(O)cc(O)c1 [5-pentadecylresorcinol]
- neuroprotective activity against oxytosis/ferroptosis (HT22 cells [1]; 1-50 μM, glutamate and RSL3): no further improvement in neuroprotective activity
